Source: patent US10952988B2, “Methods for controlling the spread of dirofilariosis” (priority 2015, dated 2021)

System: Dirofilaria immitis (JYD-34) resistant strain
Settings: in vivo

## milbemycin oxime
  average worms per dog: 7.2 worms per dog
  efficacy (adult worm reduction versus untreated Group 1): 70.7%
